Assay results: PMC3707847 (PLoS ONE, 2013)

Columns and labels:
[1] = tested on: influenza virus RNP complex (RdRp activity); assay type: biochemical, Influenza virus (A/WSN/33 (H1N1))
[2] = target: T1, recombinant IAV polymerase complex (PA/PB1/PB2) (Influenza A virus, UniProt F6KI70); assay type: biochemical, H3N2 IAV strain (A/chicken/Nanchang/3-120/01); settings: T-705 RTP at 100 µM; for Effect of increasing natural GTP to 300 µM on inhibition of polymerase activity: GTP 300 µM vs low, 3′dGTP data not shown
[3] = target: T1, recombinant IAV polymerase complex (PA/PB1/PB2); assay type: biochemical, H3N2 IAV strain (A/chicken/Nanchang/3-120/01); settings: for Primer extension products opposite C on template: template t14-1, 100 µM nucleotide plus 25 µM CTP and UTP; for Kapp, single NMP incorporation opposite cytidine (N:C): template t14-1, position +10; for Discrimination (Kapp,NTP/Kapp,GTP), opposite cytidine: template t14-1, relative to natural GTP; for Primer extension products opposite U on template: template t14-2, 100 µM nucleotide; for Discrimination (Kapp,NTP/Kapp,ATP), opposite uridine: template t14-2, relative to natural ATP; for Primer extension products with multiple incorporation sites (UCC at +10 to +12): template t14-3, 100 µM nucleotide

| Compound | Inhibition of radiolabeled viral RNA synthesis by RNP complex [1] | Effect of increasing natural GTP to 300 µM on inhibition of polymerase activity [2] | Primer extension products opposite C on template [3] | Kapp, single NMP incorporation opposite cytidine (N:C) [3] | Discrimination (Kapp,NTP/Kapp,GTP), opposite cytidine [3] | Primer extension products opposite U on template [3] | Kapp, single NMP incorporation opposite uridine (N:U) ([3]; template t14-2, position +10) | Discrimination (Kapp,NTP/Kapp,ATP), opposite uridine [3] | Primer extension products with multiple incorporation sites (UCC at +10 to +12) [3] | other results |
| --- | --- | --- | --- | --- | --- | --- | --- | --- | --- | --- |
| Nc1nc2c(ncn2[C@@H]2O[C@H](COP(=O)(O)OP(=O)(O)OP(=O)(O)O)C[C@H]2O)c(=O)[nH]1 [3′dGTP, 3′-deoxy GTP] | progressive inhibition of radio-labeled RNA synthesis | almost completely prevented the inhibition of polymerase activity | produced only a 10-mer chain termination product |  |  |  |  |  |  |  |
| Nc1ncnc2c1ncn2[C@@H]1O[C@H](COP(=O)(O)OP(=O)(O)OP(=O)(O)O)C[C@H]1O [3′dATP] |  |  |  |  |  |  |  |  |  | Incorporation by IAVpol in single nucleotide incorporation assay ([3]; data not shown): not significantly incorporated by IAVpol |
| Nc1nc2c(ncn2[C@@H]2O[C@H](COP(=O)(O)OP(=O)(O)OP(=O)(O)O)[C@@H](O)[C@H]2O)c(=O)[nH]1 [GTP] |  |  | converted to the 14-mer full length extension product | 0.0078 ± 0.003 µM | 1 fold | robust 14-mer RNA product | 9.2 ± 0.54 µM | 420 fold |  | Error rate of RNA synthesis by IAV polymerase, G:U mismatch ([3]; GTP opposite uridine, calculated from Kapp): 2.4×10^−3 |
| NC(=O)c1nc(F)cn([C@@H]2O[C@H](COP(=O)(O)OP(=O)(O)OP(=O)(O)O)[C@@H](O)[C@H]2O)c1=O [T-705 RTP, T-705 ribofuranosyl 5′-triphosphate] | inhibited the RdRp activity of influenza virus vRNPs | almost completely prevented the inhibition of polymerase activity | conversion of the 9-mer to 14-mer, with an additional 10-mer product |  |  | conversion of the 9-mer to 10- and 14-mer products |  |  | complete inhibition of further nucleotide incorporation | Potency relative to 3′dGTP against RNP complex [1]: significantly more potent than 3′dGTP; Effect of increasing natural ATP to 300 µM on inhibition ([2]; ATP 300 µM vs 3 µM): same loss of inhibition effect; Effect of CTP and UTP at varying concentrations on inhibition potency ([2]; CTP or UTP 3 or 300 µM): did not change the inhibition potency |
| Nc1ncnc2c1ncn2[C@@H]1O[C@H](COP(=O)(O)OP(=O)(O)OP(=O)(O)O)[C@@H](O)[C@H]1O [ATP] |  |  | mis-incorporation was slightly increased | 2,560±720 µM | 330,000 fold | converted to 14-mer full length product | 0.022 ± 0.003 µM | 1 fold | most of the 9-mer was converted to 10-mer | Error rate of RNA synthesis by IAV polymerase, A:C mismatch ([3]; ATP opposite cytidine, calculated from Kapp): 3.1×10^−6; Kapp for ATP opposite uridine as printed in text ([3]; template t14-2, position +10): 0.022 ± 0.003 µM⁻¹; Kapp for ATP incorporation, t14-3 template ([3]; template t14-3, 9-mer to +10 position): 0.038 µM |
